These results are taken from PubChem BioAssay (NCI).

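Step 1: Grow cells in 96-well plates. Step 2: Expose to compound for 48 hours at 5 concentrations. Step 3: Interpolate endpoints linearly; if unreached, use highest concentration. At the GI50, growth is halved. TGI: concentration producing complete growth inhibition.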 Where a SMILES comes first, the peptide text is derived from it. [ ]: non-standard residue; d: D form. The star is where a group is joined. NMeF = CN[C@@H](Cc1ccccc1)C(=O)O; NMeV = CN[C@H](C(=O)O)C(C)C; Boc = CC(C)(C)OC(=O)*; OBn = c1ccc(CO*)cc1

Test in all cases: NCI-60 cell line screen, 48 h
Experiment [1] has as its system DU-145 prostate.
For experiment [2], the system named is U251 CNS.
Experiment [3] deals with UACC-257 melanoma.
Experiment [4] relates to SK-OV-3 ovarian.
The subject of experiment [5] is OVCAR-8 ovarian.
Experiment [6] relates to SN12C renal.
Experiment [7] deals with T-47D breast.
In experiment [8] the test system is HS 578T breast.
Experiment [9] deals with PC-3 prostate.
In experiment [10] the test system is COLO 205 colon.

As to `Brc1ccccc1C=NC12CC3CC(CC(C3)C1)C2`, the TGI in experiment [1] is above 100 µM; in experiment [2], above 100 µM; in [3] it was above 100 µM; in [4], above 100 µM; in experiment [5] it was above 100 µM; in [6] it was above 63.1 µM. The TGI in experiment [7], in experiment [8], in experiment [9] and in experiment [10] was above 100 µM each time.
Take `CC(=O)OC1Oc2cc(C)c(C)cc2-c2oc(=O)c(-c3ccc(F)cc3)cc21` (stereo unspecified): the GI50 in experiment [1] was 10.3 µM; in [2] it was 4.06 µM; in [3], 10.3 µM; in experiment [4], 4.38 µM; in experiment [5], 6.67 µM; in experiment [6], 9.78 µM. Also, the GI50 is 2.43 µM in experiment [7], 8.56 µM in experiment [8], 9.67 µM in experiment [9] and 7.3 µM in experiment [10]. In addition, the TGI in experiment [1] is 77.7 µM; in [2], 45.6 µM; in experiment [3], 26 µM; in experiment [4], 54 µM; in experiment [5], above 100 µM; in [6], above 100 µM. For the same compound, the TGI in experiment [7] stood at 17.1 µM; in experiment [8], 68.6 µM; in experiment [9] it was 39.8 µM; in experiment [10], 26.1 µM.
On to `CC(C)[C@@H](C(=O)N1CCC[C@H]1C(=O)OCc1ccccc1)N(C)C(=O)[C@H](C(C)C)N(C)C(=O)[C@H](Cc1ccccc1)N(C)C(=O)[C@H](NC(=O)OC(C)(C)C)C(C)C` (Boc-[dV][NMeF][NMeV][NMeV]P-OBn), for which the TGI in experiment [1] was above 50 µM; in experiment [2], above 100 µM; in [3], above 100 µM; in experiment [4], above 100 µM; in [5] it was above 100 µM; in [6], above 100 µM. In addition, the TGI in experiment [7] was above 50 µM; in experiment [8], above 50 µM; in [9], above 50 µM; in experiment [10] it was above 100 µM. The GI50 in experiment [3] was 16.5 µM; in [10] it was 36.1 µM.
`O=C1NC(c2c(Cl)cccc2Cl)Nc2ccccc21` (stereo unspecified): the TGI in [1], in experiment [2], in experiment [3], in experiment [4], in [5] and in [6] was above 100 µM each time. Further, the TGI was above 100 µM in [7], 74.1 µM in [8], above 100 µM in [9] and above 100 µM in experiment [10].
On to `N=c1n(Cc2ccccc2)c(N)cc(=O)n1Cc1ccccc1`, for which the GI50 is 2.28 µM in experiment [1]; 3.32 µM in experiment [2]; 3.1 µM in experiment [3]; 2.99 µM in experiment [4]; 3.18 µM in experiment [5]; 1.34 µM in experiment [6]. For the same compound, the GI50 in experiment [7] was 3.01 µM; in [8], 1.04 µM; in experiment [9] it was 2.74 µM; in [10], 3.97 µM. The TGI in experiment [1] worked out at 6.47 µM; in [2], 11.7 µM; in experiment [3], 11 µM; in [4] it was 8.44 µM; in [5], 11.4 µM; in [6], 18.1 µM. Further, the TGI was determined as 12.4 µM in [7], 19.9 µM in experiment [9] and 13.8 µM in [10].
As to `OCC1OC2OC3C(CO)OC(OC4C(CO)OC(OC5C(CO)OC(OC6C(CO)OC(OC7C(CO)OC(OC1C(O)C2O)C(O)C7O)C(O)C6O)C(O)C5O)C(O)C4O)C(O)C3O` (stereo unspecified) (tested in a mixture with another compound), the TGI in experiment [1], in [2], in experiment [3], in [4], in [5] and in [6] was above 100 µM throughout. Besides, the TGI in [7], in experiment [8], in experiment [9] and in [10] was above 100 µM throughout.
Take `CCC(c1ccc2cc(O)ccc2c1)C(C)(C)C(=O)O` (stereo unspecified): the TGI in experiment [1], in experiment [2], in experiment [3], in experiment [4], in experiment [5] and in experiment [6] was above 100 µM throughout. The TGI in experiment [7], in experiment [8], in experiment [9] and in [10] was above 100 µM in each case.
With `C=CC[C@@H]1/C=C(\C)C[C@H](C)C[C@H](OC)[C@H]2O[C@@](O)(C(=O)C(=O)N3CCCC[C@H]3C(=O)O[C@H](/C(C)=C/C3CC[C@@H](O)[C@H](OC)C3)[C@H](C)[C@@H](O)CC1=O)[C@H](C)C[C@@H]2OC` (stereo partly specified), the GI50 in experiment [1] was 16.1 µM; in experiment [2], 14.2 µM; in [3] it was 15.8 µM; in experiment [4] it was 16.7 µM; in experiment [5], 16 µM; in experiment [6], 16.3 µM. The GI50 is 16.5 µM in experiment [7], 21.9 µM in experiment [8], 12.1 µM in experiment [9] and 19.3 µM in experiment [10]. For the same compound, the TGI in experiment [1] stood at 30.2 µM; in [2], 27.7 µM; in experiment [3] it was 30.6 µM; in experiment [4], 31.2 µM; in experiment [5], 39.3 µM; in [6] it was 31.6 µM. Moreover, the TGI in [7] turned out to be 35.6 µM; in experiment [8], 65.9 µM; in [9], 25.7 µM; in experiment [10], 36.6 µM.
`O=C(CN1C(=O)S/C(=C\C(Cl)=C\c2ccccc2)C1=O)NCCc1ccc(O)cc1`: the GI50 in [1] was 1.72 µM; in experiment [2], 2 µM; in experiment [3], 2.58 µM; in experiment [4], 3.48 µM; in experiment [5] it was 2.97 µM; in experiment [6] it was 2.34 µM. In addition, the GI50 in experiment [7] was 2.47 µM; in [8], 2.72 µM; in [9], 1.96 µM; in experiment [10], 2.31 µM. Further, the TGI is 3.55 µM in experiment [1]; 5.16 µM in experiment [2]; 14.5 µM in [3]; above 100 µM in experiment [4]; above 100 µM in experiment [5]; 9.79 µM in experiment [6]. The TGI in experiment [7] was 8.65 µM; in experiment [8], 7.97 µM; in experiment [9], 5.12 µM; in [10] it was 5.68 µM.
As to `O=C(NC1CCCCC1)NS(=O)(=O)c1ccc(-n2nc3c(c2-c2ccc(Cl)cc2)Cc2ccccc2-3)cc1`, the GI50 was 6.39 µM in [1]; 11.7 µM in experiment [2]; 18.4 µM in experiment [3]; 31.6 µM in experiment [4]; 11.9 µM in experiment [5]; 7.54 µM in [6]. In addition, the GI50 in [7] was 49.8 µM; in experiment [8], 5.03 µM; in [9] it was 6.28 µM; in [10], 36.2 µM. The TGI in experiment [1] is 20.3 µM; in experiment [2] it was 29.7 µM; in experiment [3] it was 39.8 µM; in experiment [4] it was above 100 µM; in experiment [5], 49.6 µM; in [6], 30.3 µM. In addition, the TGI is above 100 µM in experiment [7], 39.2 µM in experiment [8], 24.4 µM in experiment [9] and above 100 µM in experiment [10].
As for `CC(C(=O)O)/C(=C\c1ccc2c(c1)OCO2)C(=O)O` (stereo unspecified), the TGI in experiment [1], in experiment [2], in experiment [3], in experiment [4], in experiment [5] and in experiment [6] was above 100 µM each time. Besides, the TGI in experiment [7], in experiment [8], in experiment [9] and in experiment [10] was above 100 µM each time.
With `Cn1ccnc1C(=O)/C=C/c1ccc(CC(=O)Nc2ccc(F)cc2)cc1`, the GI50 in [1] is 1.24 µM; in experiment [2] it was 1.4 µM; in [3] it was 6.99 µM; in [4] it was 9.81 µM; in experiment [5], 5.71 µM; in experiment [6], 1.62 µM. In addition, the GI50 was 8.34 µM in experiment [7], 15 µM in experiment [8], 1.99 µM in experiment [9] and 4.39 µM in [10]. Further, the TGI is 5.97 µM in experiment [1]; 4.81 µM in experiment [2]; 21.6 µM in experiment [3]; above 25 µM in experiment [4]; above 25 µM in experiment [5]; 6.26 µM in experiment [6]. Moreover, the TGI in experiment [7] was above 25 µM; in experiment [8], above 25 µM; in experiment [9] it was 7.96 µM; in experiment [10], 10.3 µM.
